This passage reports TGI results from PubChem BioAssay (NCI).

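Five compound concentrations were applied to cells in 96-well plates for 48 hours; endpoints were derived by simple linear interpolation of the resulting dose-response curve. TGI: concentration producing complete growth inhibition.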

What all share (test): NCI-60 cell line screen, 48 h
For experiment [1], the system named is CAKI-1 renal.
Experiment [2] relates to HCT-116 colon.
In experiment [3] the test system is HL-60(TB) leukemia.
Experiment [4] has as its system HS 578T breast.
Experiment [5] deals with HT29 colon.
Experiment [6] relates to K-562 leukemia.
For experiment [7], the system named is LOX IMVI melanoma.
For experiment [8], the system named is MCF7 breast.
The subject of experiment [9] is SF-268 CNS.
Experiment [10] deals with SF-295 CNS.
In experiment [11] the test system is SK-MEL-2 melanoma.
The subject of experiment [12] is SK-MEL-28 melanoma.
Experiment [13] relates to SK-MEL-5 melanoma.
Experiment [14] deals with TK-10 renal.
Experiment [15] has as its system U251 CNS.
For experiment [16], the system named is SW-620 colon.

`CCC(=O)N(c1ccccc1)C(C)CN1CCC(O)(c2ccccc2)CC1` (centres undefined): the TGI in experiment [1], in experiment [2], in experiment [3], in experiment [4], in experiment [5] and in experiment [6] was above 100 µM each time. In addition, the TGI in experiment [7], in experiment [8], in experiment [9], in [10], in [11] and in experiment [12] was above 100 µM throughout. For the same compound, the TGI in experiment [13], in experiment [14] and in [15] was above 100 µM each time.

In the case of `NC(=S)N/N=C/c1cc(CN2CCOCC2)c(N)cn1`, the TGI in [1], in experiment [2], in experiment [3], in experiment [4], in experiment [5] and in experiment [6] was above 100 µM throughout. Besides, the TGI in experiment [7], in [8], in experiment [9], in experiment [10], in experiment [11] and in experiment [13] was above 100 µM in each case. For the same compound, the TGI in experiment [16], in [14] and in experiment [15] was above 100 µM throughout.

Regarding `CN1CC=C(OP(=O)(NCc2ccccc2)N(CCCl)CCCl)CC1` (centres undefined), the TGI in experiment [1], in experiment [2], in experiment [3], in experiment [4], in [5] and in experiment [6] was above 100 µM throughout. Further, the TGI in experiment [7], in experiment [8], in [9], in experiment [10], in experiment [11] and in experiment [12] was above 100 µM in each case. Moreover, the TGI in experiment [16], in [14] and in [15] was above 100 µM throughout.

`CC1CCCc2c(-c3ccc(Cl)cc3)nc(N)c(C#N)c21` (centres undefined): the TGI in experiment [1] is above 100 µM; in experiment [2] it was above 100 µM; in experiment [3], above 100 µM; in experiment [4] it was above 100 µM; in experiment [5], above 100 µM; in experiment [6] it was 93.5 µM. In addition, the TGI in experiment [7] was 68 µM; in experiment [8], above 100 µM; in [9], above 100 µM; in experiment [11], 67.6 µM; in experiment [12], above 100 µM; in experiment [13], 38.5 µM. The TGI in [16], in [14] and in [15] was above 100 µM throughout.

With `Oc1ccccc1C=Nc1ccc(Oc2ccc(Cl)cc2)c(Cl)c1`, the TGI in [1] stood at 95.4 µM; in experiment [2], 40.1 µM; in experiment [3], 65.4 µM; in experiment [4] it was 52.5 µM; in experiment [5] it was 40.1 µM; in experiment [7] it was 41 µM. Besides, the TGI in experiment [8] was above 100 µM; in [9], 43.5 µM; in experiment [10], 48.8 µM; in [11] it was 32.4 µM; in experiment [12] it was 72.5 µM; in experiment [13] it was 50.9 µM. Further, the TGI in [16] is above 100 µM; in experiment [14], above 100 µM; in [15], 50.5 µM.

As to `Cc1ccc(S(=O)(=O)N(c2ccccc2F)C2CCCCC2O)cc1` (centres undefined), the TGI in experiment [2], in [3], in [4], in [5], in experiment [6] and in [7] was above 100 µM in each case. For the same compound, the TGI in experiment [8] was 48.5 µM; in experiment [9], above 100 µM; in [10] it was above 100 µM; in [11], 93.7 µM; in experiment [12] it was above 100 µM; in experiment [13], 56.9 µM. Further, the TGI in experiment [16], in [14] and in experiment [15] was above 100 µM throughout.

Consider `CCCCCCC(N)(CCCCCC)C(=O)Nn1c(C)ccc1C`, for which the TGI in experiment [2] was above 100 µM; in [3] it was above 100 µM; in experiment [4] it was above 100 µM; in experiment [5] it was above 100 µM; in experiment [6], above 100 µM; in [8], 59.4 µM. For the same compound, the TGI in experiment [9], in [10], in experiment [11], in experiment [12], in [13] and in experiment [16] was above 100 µM in each case. For the same compound, the TGI in [14] and in [15] was above 100 µM in each case.

For `O=C(Cc1ccccc1)N/N=C(/CCN1CCCC1)CC(c1ccccc1)c1c(O)c2ccccc2oc1=O` (centres undefined), the TGI in experiment [1], in experiment [2], in [3], in experiment [4], in experiment [5] and in experiment [6] was above 100 µM throughout. For the same compound, the TGI is 44.4 µM in experiment [7]; above 100 µM in [8]; above 100 µM in [9]; above 100 µM in experiment [11]; above 100 µM in [12]; above 100 µM in [13]. Besides, the TGI in experiment [16], in experiment [14] and in experiment [15] was above 100 µM throughout.

In the case of `COC(=O)n1c(=O)nc2c3c(ncn21)Oc1c(c(-c2ccccc2)nn1-c1ccccc1)C3c1ccc(Cl)cc1` (centres undefined), the TGI in experiment [1] came to 2.98 µM; in experiment [2], 2.17 µM; in [3], 3.17 µM; in [4], 2.62 µM; in experiment [5], 2.9 µM; in experiment [6] it was 3.37 µM. The TGI worked out at 2.79 µM in [7]; 3.06 µM in experiment [8]; 3.04 µM in [10]; 3.07 µM in experiment [11]; 3.18 µM in experiment [12]; 3.16 µM in [13]. Besides, the values for the TGI in experiment [16], in experiment [14] and in [15] were 3.06 µM, 3.37 µM and 3.08 µM, respectively.
